# Results reported in ChEMBL document CHEMBL4177607, “Antibacterial constituents of the plant family Amaryllidaceae” (2017).
# What was measured:
# Type in all cases: functional
# Staphylococcus aureus [1] = experiment: Antibacterial activity against Staphylococcus aureus
# Edwardsiella ictaluri = experiment: Antibacterial activity against Edwardsiella ictaluri after 24 hrs
# Flavobacterium columnare [2] = experiment: Antibacterial activity against Flavobacterium columnare BioMed after 24 hrs
# Flavobacterium columnare [3] = experiment: Antibacterial activity against Flavobacterium columnare ALM-00-173 after 24 hrs; details: ALM-00-173, 24 h
# Rhodococcus fascians = experiment: Antibacterial activity against Corynebacterium fascians assessed as diameter of inhibition zone at 10 mM after 48 to 72 hrs by paper disc method; details: Rhodococcoides fascians; read-out: DIZ
# Pseudomonas aeruginosa = experiment: Antibacterial activity against Pseudomonas aeruginosa after 24 hrs by broth microdilution method
# Escherichia coli [4] = experiment: Antibacterial activity against Escherichia coli after 24 hrs by broth microdilution method
# Shigella flexneri = experiment: Antibacterial activity against Shigella flexneri after 24 hrs by broth microdilution method
# Staphylococcus aureus [5] = experiment: Antibacterial activity against Staphylococcus aureus assessed as diameter of inhibition zone at 3 mg/ml; details: read-out: DIZ
# Escherichia coli [6] = experiment: Antibacterial activity against Escherichia coli assessed as diameter of inhibition zone at 3 mg/ml; details: read-out: DIZ
# Neisseria gonorrhoeae = experiment: Antibacterial activity against Neisseria gonorrhoeae
# Escherichia coli [7] = experiment: Antibacterial activity against Escherichia coli assessed as diameter of inhibition zone at 1 mg/ml; details: read-out: DIZ
# Staphylococcus aureus [8] = experiment: Antibacterial activity against Staphylococcus aureus assessed as diameter of inhibition zone at 1 mg/ml; details: read-out: DIZ
smiles,measurement,setting,value
O=C1C=C2CCN3Cc4cc5c(cc4[C@H]([C@@H]1O)[C@@H]23)OCO5,MIC,Staphylococcus aureus [1],> 26 µg/mL
same,MIC,Edwardsiella ictaluri,> 26 µg/mL
same,MIC,Flavobacterium columnare [2],> 26 µg/mL
same,MIC,Flavobacterium columnare [3],> 26 µg/mL
Oc1cc2c3c(c1)-c1cc4c(cc1CN3CC2)OCO4,zone of inhibition at 10000 µM,Rhodococcus fascians,0 mm
CC(=O)O[C@H]1[C@H]2c3cc4c(cc3CN3CCC(=C[C@@H]1OC(C)=O)[C@H]23)OCO4.Cl,MIC,Flavobacterium columnare [2],40.7 µg/mL
same,MIC,Flavobacterium columnare [3],40.7 µg/mL
CCCC(=O)Oc1ccc([C@@H]2CC(=O)c3c(O)c(C)c(OC(=O)CCC)c(C)c3O2)cc1,MIC,Pseudomonas aeruginosa,4 µg/mL
same,MIC,Escherichia coli [4],2 µg/mL
same,MIC,Shigella flexneri,2 µg/mL
COc1cc2c[n+]3c4c(cc([O-])cc4c2cc1O)CC3,MIC,Flavobacterium columnare [2],10 µM
same,MIC,Flavobacterium columnare [3],100 µM
O[C@@H]1C=C[C@]23CCN(Cc4cc5c(cc42)OCO5)[C@H]3C1 [VITTATINE],zone of inhibition at 3000 µg/mL,Staphylococcus aureus [5],19 mm
same,zone of inhibition at 3000 µg/mL,Escherichia coli [6],22 mm
Cc1cccc(C(=O)O[C@H]2[C@H]3c4cc5c(cc4CN4CCC(=C[C@@H]2OC(=O)c2cccc(C)c2C)[C@H]34)OCO5)c1C,MIC,Flavobacterium columnare [2],55.2 µg/mL
same,MIC,Flavobacterium columnare [3],30.4 µg/mL
Cc1ccccc1C(=O)O[C@H]1C=C2CCN3Cc4cc5c(cc4[C@H]([C@@H]1O)[C@@H]23)OCO5,MIC,Flavobacterium columnare [2],22.9 µg/mL
same,MIC,Flavobacterium columnare [3],46.4 µg/mL
CC(=O)O[C@H]1[C@H]2c3cc4c(cc3CN3CC[C@H](C[C@@H]1OC(C)=O)[C@H]23)OCO4,MIC,Staphylococcus aureus [1],> 37 µg/mL
same,MIC,Edwardsiella ictaluri,> 37 µg/mL
same,MIC,Flavobacterium columnare [2],> 37 µg/mL
same,MIC,Flavobacterium columnare [3],> 37 µg/mL
COC1=C[C@@H]2CCN3Cc4cc5c(cc4[C@@H]([C@H]23)[C@@H]1O)OCO5 [AMARBELLISINE],zone of inhibition at 3000 µg/mL,Staphylococcus aureus [5],22 mm
same,zone of inhibition at 3000 µg/mL,Escherichia coli [6],22 mm
CC1(C)O[C@@H]2[C@H]3OS(=O)(=O)O[C@H]3[C@]3(O)c4cc5c(c(O)c4C(=O)N[C@H]3[C@@H]2O1)OCO5,MIC,Neisseria gonorrhoeae,32 to 64 µg/mL
COc1c(C)c(O)c2c(=O)cc(-c3ccc(O)cc3)oc2c1C [SIDEROXYLIN],MIC,Pseudomonas aeruginosa,64 µg/mL
same,MIC,Escherichia coli [4],32 µg/mL
same,MIC,Shigella flexneri,8 µg/mL
Cc1ccc(C(=O)Oc2ccc([C@@H]3CC(=O)c4c(O)c(C)c(OC(=O)c5ccc(C)cc5)c(C)c4O3)cc2)cc1,MIC,Pseudomonas aeruginosa,16 µg/mL
same,MIC,Escherichia coli [4],8 µg/mL
same,MIC,Shigella flexneri,8 µg/mL
CC(=O)O[C@H]1[C@H]2c3cc4c(cc3CN3CCC(=C[C@@H]1O)[C@H]23)OCO4,MIC,Staphylococcus aureus [1],> 33 µg/mL
same,MIC,Edwardsiella ictaluri,> 33 µg/mL
O=C(O[C@H]1[C@H]2c3cc4c(cc3CN3CCC(=C[C@@H]1OC(=O)c1ccc(Cl)cc1)[C@H]23)OCO4)c1ccc(Cl)cc1,MIC,Flavobacterium columnare [2],5.6 µg/mL
same,MIC,Flavobacterium columnare [3],31 µg/mL
CCCCCCCC(=O)Oc1ccc([C@@H]2CC(=O)c3c(O)c(C)c(O)c(C)c3O2)cc1,MIC,Pseudomonas aeruginosa,16 µg/mL
same,MIC,Escherichia coli [4],32 µg/mL
same,MIC,Shigella flexneri,64 µg/mL
c1cc2c3c(c1)c1cc4c(cc1c[n+]3CC2)OCO4 [ANHYDROLYCORINIUM CHLORIDE],zone of inhibition at 10000 µM,Rhodococcus fascians,30 mm
O=C(O[C@H]1[C@@H](O)[C@@H](O)[C@@H]2NC(=O)c3c(cc4c(c3O)OCO4)[C@@]2(O)[C@@H]1O)c1ccccc1,MIC,Neisseria gonorrhoeae,32 to 64 µg/mL
Oc1cc2c3c(c1)c1cc4c(cc1c[n+]3CC2)OCO4,MIC,Flavobacterium columnare [2],10 µM
same,MIC,Flavobacterium columnare [3],1 µM
same,zone of inhibition at 10000 µM,Rhodococcus fascians,0 mm
Cc1ccc(C(=O)O[C@H]2[C@H]3c4cc5c(cc4CN4CCC(=C[C@@H]2OC(=O)c2ccc(C)cc2)[C@H]34)OCO5)cc1,MIC,Flavobacterium columnare [2],22.9 µg/mL
same,MIC,Flavobacterium columnare [3],46.4 µg/mL
c1cc2c3c(c1)-c1cc4c(cc1CN3CC2)OCO4 [ANHYDROLYCORINE],zone of inhibition at 10000 µM,Rhodococcus fascians,25 mm
COc1cc2c(cc1OC)[C@@H](O)O[C@@H]1CC=C3CCN(C)[C@H]3[C@H]21,zone of inhibition at 1000 µg/mL,Escherichia coli [7],15 mm
same,zone of inhibition at 1000 µg/mL,Staphylococcus aureus [8],14 mm
CC(=O)O[C@H]1C=C2CCN3Cc4cc5c(cc4[C@H]([C@@H]1O)[C@@H]23)OCO5,MIC,Flavobacterium columnare [2],3.3 µg/mL
same,MIC,Flavobacterium columnare [3],16.6 µg/mL
CCCCCCCC(=O)Oc1c(C)c(O)c2c(c1C)O[C@H](c1ccc(O)cc1)CC2=O,MIC,Pseudomonas aeruginosa,32 µg/mL
same,MIC,Escherichia coli [4],16 µg/mL
same,MIC,Shigella flexneri,16 µg/mL
Cc1cccc(C(=O)O[C@H]2[C@H]3c4cc5c(cc4CN4CCC(=C[C@@H]2OC(=O)c2cccc(C)c2)[C@H]34)OCO5)c1,MIC,Flavobacterium columnare [2],28.8 µg/mL
same,MIC,Flavobacterium columnare [3],5.2 µg/mL
Cc1ccccc1NC(=O)O[C@H]1[C@H]2c3cc4c(cc3CN3CCC(=C[C@@H]1OC(=O)Nc1ccccc1C)[C@H]23)OCO4,MIC,Flavobacterium columnare [2],5.5 µg/mL
same,MIC,Flavobacterium columnare [3],5.5 µg/mL
O=C(O[C@H]1C=C2CCN3Cc4cc5c(cc4[C@H]([C@@H]1OC(=O)c1ccccc1Cl)[C@@H]23)OCO5)c1cccc(Cl)c1,MIC,Flavobacterium columnare [2],5.6 µg/mL
same,MIC,Flavobacterium columnare [3],31 µg/mL
